Consider one substance from US20240240189A1, “CANCER TREATMENT BY TARGETING PROTEINS OR INTERACTIONS OF EPHRINB-RGS3-KIF20A-SEPT7 AXIS” (CITY OF HOPE, priority 2021, published 2024).

“Also recorded” adds a separate entry of the source.

One data set concerns human KIF20A transcript. As to the kind of experiment: shRNA screening by dual luciferase reporter assay. The settings on record: transfected HEK293 cells, shRNA in pNUT vector, cDNA target in psi-CHECK, 48 hours. It is filed as cell-based. Here is the method: FIGS. 10a-10c show generation of human KIF20A shRNAs and stable Daoy cell lines. […] Candidate shRNAs in pNUT vector were first screened with a cDNA target cloned in psi-CHECK vector in transfected HEK293 cells, using a dual luciferase reporter assay and their cDNA target in psi-CHECK Vector (Promega). Six candidate shKIF20As were tested with this assay. […] Data are mean±S.D. **P<0.01, ***P<0.001 (two-way ANOVA).
DNA Constructs, Lentivirus Production: Lentiviral transfer plasmids used in this study include: Hiv7CMV-Cre-myc-2A-GFP (Addgene #117148), Hiv7CMV-GFP, Hiv7CMV-GFP-IRES-Luciferase, as well as Tet-on inducible shRNA plasmids Tet-pLKO-hushKIF20A726 or Tet-pLKO-hushKIF20A181-Puro (shRNA sequences were cloned into pLKO-Tet-On plasmid, Addgene #21915 at Agel/EcoRI sites). […]
shRNA design and screening: Potential shRNA sequences were selected using web-based design tool (rnaidesigner.thermofisher.com/rnaiexpress/design.do). shRNAs were expressed under the control of a mouse U6 promoter in pNUTs vector which additionally contains a ubiquitin promoter-EGFP expression cassette. Candidate shRNAs in pNUTs and cDNA target in psi-CHECK were co-transfected into HEK293 cells in triplicates; 48 hours later, the firefly and Renilla Luciferase values were determined with Promega's Dual-Luciferase® Reporter Assay System (Promega, E1910). […]
In general terms: In a reporter assay the amount or activity of a reporter protein is the signal.

In a further data set the test system is GISC017 cells. As to the kind of experiment: Cell cycle exit analysis (EdU/Ki67) in GISC017 cells. It is filed as cell-based, human. The following applies: shRNA expression vs scrambled shRNA. The text has this: To further investigate the relevance of KIF20A in human brain tumors, inhibition of KIF20A in patient-derived GBM-initiating/stem cells (GISCs) was examined. As the ERKS axis functions in different types of brain tumor-initiating/stem cells, data obtained from study of GISCs would be applicable to other brain tumor cell types. Multiple lines of patient-derived GISCs were obtained from Dr. Christine Brown. These low passaged GISCs could be expanded in cultures and could engraft in NSG mice^43, 44. FIG. 11 summarizes the results of testing KIF20A in one GISC line (GISC017) by constitutive expression of a control scrambled shRNA or shKIF20A726 (shRNA targeting hKIF20A) in pNUT vector-based lentiviral expression system. […] In the above cell cycle exit analysis, co-staining of differentiation markers (e.g. βlll-tubulin, DCX, or NeuN) was performed, however, these markers were detected in EdU^+Ki67^− (cells having left the cell cycle) but also in some EdU^+Ki67^+ (cells staying in the cell cycle) cells, which might reflect a technical artefact observed with progenitor/stem cells in culture. […]

As for “5′-GAGGAGTGTCTACATCGAA-TTCAAGAGA-TTCGATGTAGACACTCCTC-3′ (GAGGAGTGTCTACATCGAATTCAAGAGATTCGATGTAGACACTCCTC; hairpin, further chemistry not given here) [shKIF20A726, shRNA targeting human KIF20A transcript]”, the “inhibition of expression of the human KIF20A transcript (luciferase assay)” value in the data set with human KIF20A transcript was “significantly inhibit expression of the human KIF20A transcript”. Further, the “cell cycle exit (EdU+Ki67− cells)” value in the data set on GISC017 cells is listed as “more cells exiting the cell cycle; also recorded: increase of GFP+EdU+Ki67− cells”.
